Measurements reported in patent publication US20260041725A1, “MYCONOSIDE-RICH EXTRACT FROM IN VITRO SYSTEMS OF PLANTS BELONGING TO GENERA HABERLEA AND RAMONDA, METHOD OF PREPARATION, AND USE AS CHEMO-, RADIO- AND UV PROTECTOR” (INNOVA BM Ltd., priority 2022, published 2026).

Legend:
[1] = DPPH radical scavenging activity by direct EPR spectroscopy, with UV protector Oxybenzone (Example 5); details: for percentage of trapped DPPH radicals: 0.5% aqueous solution, FIG. 4
Description: The radical scavenging activities (% inhibition) of aqueous solutions (0.5%) of Extract 1, Extract 2 (obtained according to Example 1), Oxybenzone, and 1:1 extract: Oxybenzon combinations (w/w) was evaluated by a DPPH test. A comparative DPPH analysis was carried out and the antioxidant potential of Extract 1, Extract 2, a commercial UV protector (Oxybenzone), as well as combinations of Extract 1 with Oxybenzone and of Extract 2 with Oxybenzone was compared. […] The method of direct EPR spectroscopy was used (Yordanov and Christova, 1997; Karamalakova, 2014). To measure DPPH radical scavenging capacity, 98% ethanolic solution of DPPH (80 mM, stock) was used, room temperature (22° C.), and Extract 1, Extract 2, Oxybenzone and the relevant combinations (at a concentration of 0.5%) were mixed and homogenized. The mixture was incubated in the dark, and examined for DPPH-H/R radicals generated in the system at the 1st, 5th and 10th minute. DPPH solution was used as an internal standard for the EPR signal (FIG. 4).

[2] = DPPH radical scavenging activity before and after 2.0 Gy gamma irradiation (Example 6); details: 0.25% aqueous solution, FIG. 6
Description: The effect of combinations of the investigated extracts with the commercial radioprotector amifostine was also studied before and after gamma irradiation (FIG. 6). 2.0 Gy 60Co gamma radiation (y-rays) was performed in a water bath (37° C.) with a Rokus-M irradiator at 24 Gy/min.

[3] = system: human lymphocyte cultures; test: Cytokinesis-block micronucleus test, irradiated and non-irradiated blood (Example 7); format: cell-based; details: non-irradiated blood cells; FIG. 7A
Description: The anticlastogenic potential of Extract 1 and Extract 2 (obtained according to Example 1), as well as of the clinically proven cytoprotective agent amifostine, was investigated individually and in combinations on human lymphocyte cultures in vitro before and after exposure to ionizing radiation (gamma rays) by micronucleus scoring tests. […] A compound is considered mutagenic when it increases the spontaneous frequency of the micronuclei (MN) in polychromatic erythrocytes or in lymphocytes. […] The cytokinesis-block micronucleus assay of Fenech, M. and A. Morley (1985) was used to analyze MN in binuclear lymphocytes from peripheral blood. The number of MN found in the examined 500 binuclear cells from cell cultures prepared with irradiated and non-irradiated peripheral venous blood taken from 5 healthy volunteers was investigated. The blood of the donors was exposed to 2.0 Gy 60Co gamma radiation (y-rays) in a water bath (37° C.) with a Rokus-M irradiator at 24 Gy/min. Exposure was calculated depending on the geometrical parameters of the irradiator, the distance and power of the source.

[4] = DPPH radical scavenging activity by direct EPR spectroscopy, with radioprotector amifostine (Example 6); details: 0.5% aqueous solution, FIG. 5
Text: It has been proven that free radicals generated after exposure to gamma radiation are highly reactive and can trigger chain reactions leading to significant biological damage and increased oxidative stress. […] They are substances and compounds of synthetic or natural origin that allow the body's cells to withstand higher levels of radiation or can quickly eliminate the harmful genotoxic effects of such radiation and maintain human genome stability. […] (FIG. 5).

[5] = system: human lymphocyte cultures; test: Induced chromosomal aberrations test, before and after gamma irradiation (Example 8); format: cell-based; details: non-irradiated blood cells; FIG. 8A
Description: The clastogenic activity and anticlastogenic potential of Extract 1 and Extract 2 (obtained according to Example 1), as well as of the clinically proven cytoprotective agent amifostine, were investigated alone and in combination on human lymphocyte cultures in vitro before and after exposure to ionizing radiation (y-rays) through tests for detection of induced chromosomal aberrations.
The study design included a total of 6 groups, including the untreated control. In each group, 5 blood donors were examined, and in each donor 100 metaphase plates obtained from lymphocyte cells from peripheral venous blood were analyzed for chromosomal aberrations, or a total of 500 metaphase plates for each group.
Cell cultures were prepared using the method of Evans H. J. for short-term culturing of peripheral blood lymphocytes and obtaining metaphase plates for chromosome aberration reading. Chromosome microscope slides were observed on an Olympus BX41 microscope at the most convenient magnifications—screening preparations at magnification 63 and detailed analysis of chromosomes for aberrations at magnification 1000. A minimum of 100 metaphases from each sample were analyzed. […] Exposure was calculated depending on the geometrical parameters of the irradiator, the distance and power of the source.

[6] = UVA and UVB light transmission (T %) of dilutions of Extract 2 (Example 4); format: physicochemical; details: FIG. 3
Description: UVA and UVB light transmission (T %) was studied for different dilutions of Extract 2 (obtained according to Example 1 herein) with myconoside concentrations of 0.11 mg/ml, 0.055 mg/ml, 0.011 mg/ml, 0 0.0055 mg/ml, and 0.00275 mg/ml, as presented in FIG. 3.

## COc1ccc(C(=O)c2ccccc2)c(O)c1 [Oxybenzone]
[1]; 1st minute
  percentage of trapped DPPH radicals: 4.7%
[1]; 5th minute
  percentage of trapped DPPH radicals: 3.2%
[1]; 10th minute
  percentage of trapped DPPH radicals: 2.2%
[1]; 0.5%, Oxybenzone alone vs 1:1 combinations with extracts, p<0.001
  antioxidant activity (in words): very low antioxidant activity

## NCCCNCCSP(=O)(O)O [amifostine]
[2]; after 2.0 Gy gamma irradiation
  percentage of trapped DPPH radicals: 5.9%
[2]; before gamma irradiation
  percentage of trapped DPPH radicals: 2.5%
[3]
  clastogenic activity (number of MN in 500 binuclear cells): lack of clastogenic activity
[4]; 1st minute
  percentage of trapped DPPH radicals: 5.1%
[4]; 5th minute
  percentage of trapped DPPH radicals: 4.5%
[4]; 10th minute
  percentage of trapped DPPH radicals: 3.9%
[5]
  clastogenic activity (frequency of aberrant cells): no clastogenic activity

## O=C(CCc1ccc(O)c(O)c1)O[C@H]1[C@H](O[C@H]2OC[C@](O)(CO)[C@H]2O)[C@@H](O)[C@H](OCCc2ccc(O)c(O)c2)O[C@@H]1CO[C@@H]1OC[C@](O)(CO)[C@H]1O [myconoside, [(2R,3R,4R,5R,6R)-4-[(2R,3R,4R)-3,4-dihydroxy-4-(hydroxymethyl)oxolan-2-yl]oxy-2-[[(2R,3R,4R)-3,4-dihydroxy-4-(hydroxymethyl)oxolan-2-yl]oxymethyl]-6-[2-(3,4-dihydroxyphenyl)ethoxy]-5-hydroxyoxan-3-yl]3-(3,4-dihydroxyphenyl)propanoate]
[6]; maximum concentration of 0.11 mg/ml of myconoside (dilutions of Extract 2 of Example 1)
  protection (UV radiation transmission): 100%
[6]; minimum concentration of 0.011 mg/ml of myconoside (dilutions of Extract 2 of Example 1)
  inhibition of UV radiation transmission: 50%
